# Assay results published in patent US10946016B2, “Solid forms of an epidermal growth factor receptor kinase inhibitor” (Celgene CAR LLC, priority 2012, dated 2021).
# Legend:
# Type in all cases: physicochemical
# [1] = Aqueous solubility: slurries in deionised water, HPLC; conditions: slurry in deionised water shaken ca. 24 hours; for aqueous solubility: assessment in words
# Procedure: Slurries of all each polymorphic form were created in deionised water and shaken for ca. 24 hours. The resulting solid was then analysed by HPLC to determine the concentration of material dissolved.
# [2] = Stability at 40° C./75% RH for 1 week and 2 weeks (XRPD and HPLC); conditions: open container
# Procedure: Samples of each form were exposed to an environment of 40° C./75% RH for 1 week and 2 week periods to determine stability. Resulting solids were analysed by XRPD and HPLC to establish if any changes had occurred.
# [3] = Dynamic vapour sorption (DVS) with post DVS XRPD; conditions: for DVS water uptake: between 20 and 70% RH
# Procedure: For dynamic vapour sorption (DVS), approximately 10 mg of sample was placed into a wire mesh vapour sorption balance pan and loaded into a DVS-1 dynamic vapour sorption balance by Surface Measurement Systems. The sample was subjected to a ramping profile from 20-90% relative humidity (RH) at 10% increments, maintaining the sample at each step until a stable weight had been achieved (99.5% step completion). After completion of the sorption cycle, the sample was dried using the same procedure, but all the way down to 0% RH and finally taken back to the starting point of 20% RH. The weight change during the sorption/desorption cycles were plotted, allowing for the hygroscopic nature of the sample to be determined.
# [4] = XRPD after heating or drying (solid form conversion); conditions: for XRPD after drying: ambient under vacuum 7 days, then 2 days at 40° C.
# Procedure: X-ray powder diffraction (XRPD) analysis was carried out on a Siemens D5000, scanning the samples between 3 and 30 or 50° 2-theta. For samples <100 mg, ca. 5-10 mg of sample was gently compressed onto a glass slide which fitted into the sample holder. For samples >100 mg, ca. 100 mg of sample was gently compressed into a plastic sample holder, so that the sample surface was smooth and just above the level of the sample holder. Measurements were made as follows: In order to determine the relationship between Forms A and B, a sample of Form B was heated to 120° C. and then XRPD analysis was carried out. […] To determine whether Form C remains the same after losing the solvent present, a sample of Form C was heated to 120° C. (i.e., just past the temperature at which the solvent is removed) and then XRPD analysis was carried out. […] In order to determine whether Form E remains the same after losing the solvent present, a sample of Form E was heated to 120° C. (i.e., just past the temperature at which the solvent is lost) and then XRPD analysis was carried out. […] In order to determine whether Form F remains the same after losing the solvent present, a sample of Form F was heated to 120° C. (i.e., just past the temperature at which the solvent is lost) and then XRPD analysis was carried out. […] To examine whether Form H changes to Form A after heating to 115° C. (point after the solvent loss), the Form H material was heated to 115° C. and XRPD analysis and DSC analysis were then carried out. […] The DSC analysis (FIG. 49) indicated overlapping endotherms between ca. 115-135° C., followed by an exotherm at peak 143.9° C., likely indicating a polymorphic transition. A final endotherm was present at onset 202.7° C. (peak 206.6° C.) corresponding with the Form A melt.
SMILES,detection by HPLC analysis for the aqueous solubility [1],aqueous solubility [1],HPLC purity after storage ([2]; 1 week),XRPD analysis after storage ([2]; 1 week),HPLC purity after storage ([2]; 2 week),XRPD analysis after storage ([2]; 2 week),Post DVS XRPD (solid form) [3],hygroscopicity (DVS) [3],DVS water uptake [3] [%],XRPD after heating ([4]; heated to 120° C.),XRPD after heating ([4]; heated to 160° C.),DVS analysis observation [3],XRPD after drying [4]
"C=CC(=O)Nc1cccc(Nc2nc(Nc3ccc(N4CCN(C(C)=O)CC4)cc3OC)ncc2C(F)(F)F)c1 [Form B, N-(3-(2-(4-(4-acetylpiperazin-1-yl)-2-methoxyphenylamino)-5-(trifluoromethyl)pyrimidin-4-ylamino)phenyl)acrylamide]",could not be detected,poor,ca. 96.8%,predominantly amorphous,ca. 95.9%,predominantly amorphous,remained Form B,non-hygroscopic,0.74,mixture of Form B and Form A,converted predominantly to Form A,,
"C=CC(=O)Nc1cccc(Nc2nc(Nc3ccc(N4CCN(C(C)=O)CC4)cc3OC)ncc2C(F)(F)F)c1 [Form C, N-(3-(2-(4-(4-acetylpiperazin-1-yl)-2-methoxyphenylamino)-5-(trifluoromethyl)pyrimidin-4-ylamino)phenyl)acrylamide]",could not be detected,poor,ca. 97.1%,converted to Form A with some loss in crystallinity,ca. 96.8%,poorly crystalline with the peaks present corresponding with Form A,converted to Form A,,,converted to Form A,,"contain solvent, which is lost as the relative humidity is increased",some loss in crystallinity and converted to Form A
"C=CC(=O)Nc1cccc(Nc2nc(Nc3ccc(N4CCN(C(C)=O)CC4)cc3OC)ncc2C(F)(F)F)c1 [Form D, N-(3-(2-(4-(4-acetylpiperazin-1-yl)-2-methoxyphenylamino)-5-(trifluoromethyl)pyrimidin-4-ylamino)phenyl)acrylamide]",could not be detected,extremely poor,ca. 96.5%,converted completely to Form B with some loss in crystallinity,ca. 95.5%,poorly crystalline with the peaks present corresponding with Form B,converted completely to Form B,,,,,contain solvent which is lost as the relative humidity is increased,
"C=CC(=O)Nc1cccc(Nc2nc(Nc3ccc(N4CCN(C(C)=O)CC4)cc3OC)ncc2C(F)(F)F)c1 [Form E, N-(3-(2-(4-(4-acetylpiperazin-1-yl)-2-methoxyphenylamino)-5-(trifluoromethyl)pyrimidin-4-ylamino)phenyl)acrylamide]",could not be detected,extremely poor,ca. 97.7%,predominantly amorphous with visible peaks present corresponding with Form A,ca. 97.3%,predominantly amorphous with visible peaks present corresponding with Form A,converted to Form A,,0.25,converted to Form A,,,lost some crystallinity and converted to Form A
